Experimental data reported in patent US9474790B2, “Stable, protracted GLP-1/glucagon receptor co-agonists for medical use” (Novo Nordisk A/S, priority 2013, dated 2016).
Numbered stars: 1 amine (or outer) side, 2 acyl side, 3 side chain; on linkers, the order of the positions; unused ones are H or OH. Bridge positions count the residues as written; N and C are the ends. Square brackets hold non-standard residues; d marks the D form. Side chains are listed from the residue outwards. Peptide text beside a SMILES is read from it. I, II: the chains in the order shown. * marks the point of attachment. C18 diacid = O=C(O)CCCCCCCCCCCCCCCCC(=O)*; γGlu = O=C(O)[C@H](CCC(=O)[*:2])N[*:1]; AEEA = NCCOCCOCC(=O)O; Aib = CC(C)(N)C(=O)O

Test: Thioflavin T (ThT) fibrillation assay for physical stability
Assay type: physicochemical
Settings: 250 μM in 10 mM HEPES buffer, pH 7.5, 37° C., shaking 960 rpm
Summary of the method: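 Fibrillation was followed by ThT (1 μM) fluorescence every 20 min, 444/485 nm, for 250 μM peptide in 10 mM HEPES pH 7.5 shaken at 960 rpm, 37° C. Lag time (t0−2τ) and apparent rate constant (1/τ) come from a sigmoidal fit. Recovery is % of initial concentration remaining soluble after centrifugation and filtration (RP-HPLC).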

Row | Compound | THT assay Lag time (Ex. 76) [h]
1 | CC(C)C[C@H](NC(=O)[C@H](Cc1ccc(O)cc1)NC(=O)[C@H](CCCCN)NC(=O)[C@H](CO)NC(=O)[C@H](CC(C)C)NC(=O)[C@H](CC(=O)O)NC(=O)[C@H](CO)NC(=O)[C@@H](NC(=O)[C@H](Cc1ccccc1)NC(=O)[C@@H](NC(=O)CNC(=O)[C@H](CCC(N)=O)NC(=O)C(C)(C)NC(=O)[C@@H](N)Cc1c[nH]cn1)[C@@H](C)O)[C@@H](C)O)C(=O)N[C@@H](CCC(=O)O)C(=O)N[C@@H](CO)C(=O)N[C@@H](CCCNC(=N)N)C(=O)N[C@@H](CCCNC(=N)N)C(=O)N[C@@H](C)C(=O)N[C@@H](CCCNC(=N)N)C(=O)N[C@@H](CCC(=O)O)C(=O)N[C@@H](Cc1ccccc1)C(=O)N[C@H](C(=O)N[C@@H](CCC(N)=O)C(=O)N[C@@H](Cc1c[nH]c2ccccc12)C(=O)N[C@@H](CC(C)C)C(=O)N[C@@H](CC(C)C)C(=O)N[C@@H](CCCCNC(=O)CC[C@H](NC(=O)COCCOCCNC(=O)COCCOCCNC(=O)CC[C@H](NC(=O)CC[C@H](NC(=O)CCCCCCCCCCCCCCCCC(=O)O)C(=O)O)C(=O)O)C(=O)O)C(=O)N[C@H](C(N)=O)[C@@H](C)O)C(C)C [Example 20, N^ε29-[(4S)-4-carboxy-4-[[2-[2-[2-[[2-[2-[2-[[(4S)-4-carboxy-4-[[(4S)-4-carboxy-4-(17-carboxyheptadecanoylamino)butanoyl]amino]butanoyl]amino]ethoxy]ethoxy]acetyl]amino]ethoxy]ethoxy]acetyl]amino]butanoyl]-[Aib2,Leu10,Glu15,Arg20,Glu21,Leu27,Lys28]-Glucagon amide] (H-H[Aib]QGTFTSDLSKYLESRRAREFVQWLLK([γGlu-AEEA-AEEA-γGlu-γGlu-C18 diacid])T-NH2; N-terminus assumed) | 6
2 | CC(C)C[C@H](NC(=O)[C@H](Cc1ccc(O)cc1)NC(=O)[C@H](CCCCN)NC(=O)[C@H](CO)NC(=O)[C@H](CC(C)C)NC(=O)[C@H](CC(=O)O)NC(=O)[C@H](CO)NC(=O)[C@@H](NC(=O)[C@H](Cc1ccccc1)NC(=O)[C@@H](NC(=O)CNC(=O)[C@H](CCC(N)=O)NC(=O)C(C)(C)NC(=O)[C@@H](N)Cc1c[nH]cn1)[C@@H](C)O)[C@@H](C)O)C(=O)N[C@@H](CCC(=O)O)C(=O)N[C@@H](CO)C(=O)N[C@@H](CCCNC(=N)N)C(=O)N[C@@H](CCCNC(=N)N)C(=O)N[C@@H](C)C(=O)N[C@@H](CCCNC(=N)N)C(=O)N[C@@H](CCC(=O)O)C(=O)N[C@@H](Cc1ccccc1)C(=O)N[C@H](C(=O)N[C@@H](CCC(N)=O)C(=O)N[C@@H](Cc1c[nH]c2ccccc12)C(=O)N[C@@H](CC(C)C)C(=O)N[C@@H](CC(C)C)C(=O)N[C@@H](CCCCNC(=O)CC[C@H](NC(=O)CC[C@H](NC(=O)COCCOCCNC(=O)COCCOCCNC(=O)CC[C@H](NC(=O)CCCCCCCCCCCCCCCCC(=O)O)C(=O)O)C(=O)O)C(=O)O)C(=O)N[C@H](C(N)=O)[C@@H](C)O)C(C)C [Example 23, N^ε28-[(4S)-4-carboxy-4-[[(4S)-4-carboxy-4-[[2-[2-[2-[[2-[2-[2-[[(4S)-4-carboxy-4-(17-carboxyheptadecanoylamino)butanoyl]amino]ethoxy]ethoxy]acetyl]amino]ethoxy]ethoxy]acetyl]amino]butanoyl]amino]butanoyl]-[Aib2,Leu10,Glu15,Arg20,Glu21,Leu27,Lys28]-Glucagon amide] (H-H[Aib]QGTFTSDLSKYLESRRAREFVQWLLK([γGlu-γGlu-AEEA-AEEA-γGlu-C18 diacid])T-NH2; N-terminus assumed) | 45
3 | CC(C)C[C@H](NC(=O)[C@H](Cc1ccc(O)cc1)NC(=O)[C@H](CCCCN)NC(=O)[C@H](CO)NC(=O)[C@H](CC(C)C)NC(=O)[C@H](CC(=O)O)NC(=O)[C@H](CO)NC(=O)[C@@H](NC(=O)[C@H](Cc1ccccc1)NC(=O)[C@@H](NC(=O)CNC(=O)[C@H](CCC(N)=O)NC(=O)C(C)(C)NC(=O)[C@@H](N)Cc1c[nH]cn1)[C@@H](C)O)[C@@H](C)O)C(=O)N[C@@H](CCC(=O)O)C(=O)N[C@@H](CO)C(=O)N[C@@H](CCCCN)C(=O)N[C@@H](CCCNC(=N)N)C(=O)N[C@@H](C)C(=O)N[C@@H](CCCNC(=N)N)C(=O)N[C@@H](CCC(=O)O)C(=O)N[C@@H](Cc1ccccc1)C(=O)N[C@H](C(=O)N[C@@H](CCC(N)=O)C(=O)N[C@@H](Cc1c[nH]c2ccccc12)C(=O)N[C@@H](CC(C)C)C(=O)N[C@@H](CC(C)C)C(=O)N[C@@H](CCCCNC(=O)CNC(=O)[C@H](CO)NC(=O)[C@H](CCC(=O)O)NC(=O)CNC(=O)[C@H](CO)NC(=O)CC[C@H](NC(=O)CC[C@H](NC(=O)CCCCCCCCCCCCCCCCC(=O)O)C(=O)O)C(=O)O)C(=O)N[C@H](C(N)=O)[C@@H](C)O)C(C)C [Example 25, N^ε28-[2-[[(2S)-2-[[(2S)-4-carboxy-2-[[2-[[(2S)-2-[[(4S)-4-carboxy-4-[[(4S)-4-carboxy-4-(17-carboxyheptadecanoylamino)butanoyl]amino]butanoyl]amino]-3-hydroxypropanoyl]amino]acetyl]amino]butanoyl]amino]-3-hydroxypropanoyl]amino]acetyl]-[Aib2,Leu10,Glu15,Lys17,Arg20,Glu21,Leu27,Lys28]-Glucagon amide] (I: H-H[Aib]QGTFTSDLSKYLESKRAREFVQWLLKT-NH2 / II: {C18 diacid-γGlu-γGlu}-SGESG; amide I:28-II:C; N-terminus assumed) | 45

Other lines, results leading:

Row | THT assay Lag time (Ex. 76) [h] | Compound
4 | 6.7 | CC(C)C[C@H](NC(=O)[C@H](Cc1c[nH]c2ccccc12)NC(=O)[C@H](C)NC(=O)[C@@H](NC(=O)[C@H](Cc1ccccc1)NC(=O)[C@H](CCC(=O)O)NC(=O)[C@H](CCCNC(=N)N)NC(=O)[C@H](C)NC(=O)[C@H](CCCNC(=N)N)NC(=O)[C@H](CCCNC(=N)N)NC(=O)[C@H](CCCCNC(=O)CC[C@H](NC(=O)COCCOCCNC(=O)COCCOCCNC(=O)CC[C@H](NC(=O)CC[C@H](NC(=O)CCCCCCCCCCCCCCCCC(=O)O)C(=O)O)C(=O)O)C(=O)O)NC(=O)[C@H](CC(=O)O)NC(=O)[C@H](CC(C)C)NC(=O)[C@H](Cc1ccc(O)cc1)NC(=O)[C@H](CCCCN)NC(=O)[C@H](CO)NC(=O)[C@H](CC(C)C)NC(=O)[C@H](CC(=O)O)NC(=O)[C@H](CO)NC(=O)[C@@H](NC(=O)[C@H](Cc1ccccc1)NC(=O)[C@@H](NC(=O)CNC(=O)[C@H](CCC(N)=O)NC(=O)C(C)(C)NC(=O)[C@@H](N)Cc1c[nH]cn1)[C@@H](C)O)[C@@H](C)O)C(C)C)C(=O)N[C@@H](CC(C)C)C(=O)N[C@@H](CC(N)=O)C(=O)N[C@H](C(N)=O)[C@@H](C)O [Example 19, N^ε29-[(4S)-4-carboxy-4-[[2-[2-[2-[[2-[2-[2-[[(4S)-4-carboxy-4-[[(4S)-4-carboxy-4-(17-carboxyheptadecanoylamino)butanoyl]amino]butanoyl]amino]ethoxy]ethoxy]acetyl]amino]ethoxy]ethoxy]acetyl]amino]butanoyl]-[Aib2,Leu10,Lys16,Arg20,Glu21,Ala24,Leu27]-Glucagon amide] (H-H[Aib]QGTFTSDLSKYLDK([γGlu-AEEA-AEEA-γGlu-γGlu-C18 diacid])RRAREFVAWLLNT-NH2; N-terminus assumed)
5 | 18 | CC(C)C[C@H](NC(=O)[C@H](CC(C)C)NC(=O)[C@H](Cc1c[nH]c2ccccc12)NC(=O)[C@H](CCC(N)=O)NC(=O)[C@@H](NC(=O)[C@H](Cc1ccccc1)NC(=O)[C@H](CCC(=O)O)NC(=O)[C@H](CCCNC(=N)N)NC(=O)[C@H](C)NC(=O)[C@H](CCCNC(=N)N)NC(=O)[C@H](CCCNC(=N)N)NC(=O)[C@H](CO)NC(=O)[C@H](CCC(=O)O)NC(=O)[C@H](CC(C)C)NC(=O)[C@H](Cc1ccc(O)cc1)NC(=O)[C@H](CCCCN)NC(=O)[C@H](CO)NC(=O)[C@H](CC(C)C)NC(=O)[C@H](CC(=O)O)NC(=O)[C@H](CO)NC(=O)[C@@H](NC(=O)[C@H](Cc1ccccc1)NC(=O)[C@@H](NC(=O)CNC(=O)[C@H](CCC(N)=O)NC(=O)C(C)(C)NC(=O)[C@@H](N)Cc1c[nH]cn1)[C@@H](C)O)[C@@H](C)O)C(C)C)C(=O)N[C@@H](CC(N)=O)C(=O)N[C@@H](CCCCNC(=O)CC[C@H](NC(=O)COCCOCCNC(=O)COCCOCCNC(=O)CC[C@H](NC(=O)CC[C@H](NC(=O)CCCCCCCCCCCCCCCCC(=O)O)C(=O)O)C(=O)O)C(=O)O)C(N)=O [Example 21, N^ε29-[(4S)-4-carboxy-4-[[2-[2-[2-[[2-[2-[2-[[(4S)-4-carboxy-4-[[(4S)-4-carboxy-4-(17-carboxyheptadecanoylamino)butanoyl]amino]butanoyl]amino]ethoxy]ethoxy]acetyl]amino]ethoxy]ethoxy]acetyl]amino]butanoyl]-[Aib2,Leu10,Glu15,Arg20,Glu21,Leu27,Lys29]-Glucagon amide] (H-H[Aib]QGTFTSDLSKYLESRRAREFVQWLLNK([γGlu-AEEA-AEEA-γGlu-γGlu-C18 diacid])-NH2; N-terminus assumed)
